In BindingDB's records for doi:10.1021/jm300804e (National Institute of Allergy and Infectious Diseases, 2012):

How the values were obtained:
[1] = Inhibition of matrix metalloprotease activated Bacillus anthracis Protective antigen-mediated cytotoxicity in HT1080 cells compound co-treated for 5 hrs with antigen measured after 48 hrs by MTT assay in presence of FP59
[2] = Inhibition of Bacillus anthracis Protective antigen-mediated cytotoxicity in RAW264.7 cells compound co-treated for 5 hrs with antigen measured after 48 hrs by MTT assay in presence of FP59
[3] = Inhibition of Bacillus anthracis Protective antigen-mediated cytotoxicity in RAW264.7 cells compound co-treated for 5 hrs with antigen by MTT assay in presence of lethal factor
[4] = Inhibition of Bacillus anthracis Protective antigen-mediated cytotoxicity in HT1080 cells compound co-treated for 5 hrs with antigen measured after 48 hrs by MTT assay in presence of FP59

`NC(=O)c1ccccc1NC(=O)c1ccc(C(=O)Nc2ccccc2C(N)=O)cc1` gave an EC50 [1] of 1 µM, an EC50 [2] of 1 µM and an EC50 [3] of 3 µM. The EC50 [4] was 1 µM.
`Oc1ccccc1/C=N/c1ccc(Cc2ccc(/N=C/c3ccccc3O)c(O)c2)cc1O` gave an EC50 [1] of 1 µM, an EC50 [2] of 1 µM and an EC50 [3] of 3 µM. For the same compound, the EC50 [4] was 1 µM.
